Among the data in PubChem BioAssay AID1259371 (The Scripps Research Institute Molecular Screening Center, 2018) are IC50 values, retold here.

pIC50: −log10 of the molar value. Activity calls are given as the source filed them. How the calls were made is not given here.

In general, IC50 refers to the concentration that inhibits the measured activity by half. One may read the pIC50 as −log10 of the IC50, conventionally taken in molar units.

The assay deals with Microphthalmia-associated transcription factor (Homo sapiens) (UniProt O75030). The assay is described as follows: compounds blocking human MITF signal – biochemical, AlphaScreen, dose response (AID 1259371). The settings on record: AlphaScreen biochemical MITF assay, signal inhibition. (In general: Bead proximity is the source of the signal in Alpha formats.)
Sequence of Microphthalmia-associated transcription factor (Homo sapiens) (O75030 whole entry, looked up): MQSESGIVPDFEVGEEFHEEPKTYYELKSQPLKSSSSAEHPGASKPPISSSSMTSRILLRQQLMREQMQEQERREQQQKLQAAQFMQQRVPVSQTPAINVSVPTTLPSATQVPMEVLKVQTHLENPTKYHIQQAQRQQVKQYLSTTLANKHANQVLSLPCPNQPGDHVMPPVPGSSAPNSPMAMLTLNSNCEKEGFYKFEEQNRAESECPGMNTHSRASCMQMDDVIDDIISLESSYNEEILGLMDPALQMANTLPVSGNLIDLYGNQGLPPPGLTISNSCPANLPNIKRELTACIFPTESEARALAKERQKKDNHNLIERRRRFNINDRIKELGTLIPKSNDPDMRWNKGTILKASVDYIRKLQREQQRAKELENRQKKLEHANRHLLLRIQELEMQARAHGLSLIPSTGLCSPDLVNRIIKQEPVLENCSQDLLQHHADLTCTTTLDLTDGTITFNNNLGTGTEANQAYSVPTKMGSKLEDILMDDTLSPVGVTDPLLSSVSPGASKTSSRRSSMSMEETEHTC
For `O=C(OC1CCOC1=O)c1ccc(S(=O)(=O)NCc2ccco2)cc1` (stereo not drawn), the IC50 was > 2370 nM (inactive). The same measure, in the same setting: to `CC(Oc1ccc2c(C(F)(F)F)cc(=O)oc2c1)C(=O)NN` (stereo not drawn) belongs “inactive”; to `O=[N+]([O-])c1c(Br)ccc2c1no[n+]2[O-]`, “inactive”. In the case of `O=C(COC(=O)/C=C/c1ccco1)NCc1ccco1`, the negative logarithm of the IC50 (pIC50) was 6.41. Regarding `CN(C)c1ccc(O)c2c1C[C@H]1C[C@H]3[C@H](N(C)C)C(=O)C(C(N)=O)=C(O)[C@@]3(O)C(=O)C1=C2O`, the pIC50 was 7.53. `CC1CCC(N2CCN(Cc3ccco3)CC2)CC1` (stereo not drawn): the IC50 result is “inactive”. For `CC(C)N(C)CCOC(=O)/C=C/c1ccco1`, the IC50 entry was “inactive”. As for `O=C(NC1CCCCC1)N1CCN2C(=O)[C@@H]3CCCN3C(=O)[C@H]2C1`, the IC50 result was “inactive”. On to `CNC(=O)Nc1ccc2nc(-c3ccco3)c(-c3ccco3)nc2c1`, for which the pIC50 is 7.32. `CC(C)(C)OC(=O)N1C(C(=O)O)CSC1c1cc2c(cc1[N+](=O)[O-])OCO2` (stereo not drawn): the pIC50 is 6.04.

As to `Cc1cncc2c(S(=O)(=O)N3CC[C@@H](NC(=O)C(O)c4ccc(F)cc4F)C3)cccc12` (stereo partly drawn), the IC50 entry is “inactive”.

Regarding `COC(=O)c1c(NC(=O)c2ccc([N+](=O)[O-])o2)sc(Cc2ccc3c(c2)OCO3)c1C`, the IC50 result is “inactive”.

Regarding `Nc1cc(Br)cnc1N`, the pIC50 was 7.21. Regarding `NC(=O)c1ccccc1NC(=S)NC(=O)/C=C/c1ccco1`, the pIC50 was 6.33. On to `COCCCNC(=O)/C(C#N)=C/c1ccc(OCC(=O)O)c(OC)c1`, for which the IC50 entry was “inactive”.

For `O=C1CCCC2=C1C(c1ccc([N+](=O)[O-])o1)C1=C(CCCC1=O)O2`, the IC50 entry was “inactive”. On the same count and under the same terms, the figure for `COc1cccc(C(=O)N2CCN(Cc3cccc(Cl)c3)CC2)c1` is > 4800 nM (inactive); for `COc1ccc(CCNC(=O)CN2CCN(Cc3nc(-c4ccco4)cs3)CC2)cc1OC` it is “inactive”. In the case of `CCOC(=O)C1CCCN(Cc2cccc(Br)c2)C1` (stereo not drawn), the IC50 was > 6480 nM (inactive). Consider `O=C(OC1CCCC1=O)c1ccc(Cl)c(S(=O)(=O)N2CCOCC2)c1` (stereo not drawn), for which the IC50 result is “inactive”.

Turning to `Cc1cc(N=Cc2ccc([N+](=O)[O-])o2)ccc1S(=O)(=O)O`, the IC50 entry is “inactive”. On to `COc1ccc(OC)c(CN2CCN(Cc3ccc(F)cc3)CC2)c1`, for which the IC50 was > 6110 nM (inactive). Consider `NC(=O)COC(=O)/C=C/c1ccc(I)o1`, for which the IC50 result was “inactive”. Regarding `O=C(CSc1nsc(SCC(=O)Nc2ccc(Cl)c(Cl)c2)n1)Nc1ccc(Cl)c(Cl)c1`, the IC50 result was “inactive”.

As to `Cc1cc2c(c(=O)[nH]1)C(=O)O/C2=C\c1ccco1`, the pIC50 was 7.81. On to `COc1ccc2c(c1)CC(C(=O)Nc1ccc(-c3cn[nH]c3)cc1OCC#N)CO2` (stereo not drawn), for which the IC50 entry is “inactive”. On to `COc1ccc(CC2NCCc3cc(OC)c(OC)cc32)cc1OC` (stereo not drawn), for which the pIC50 was 7.40. Regarding `CCN(C(=O)C1COc2ccccc2O1)C12CC3CC(CC(C3)C1)C2` (stereo not drawn), the IC50 result is “inactive”. In the case of `N#C/C(=C\c1ccc(-c2ccccc2C(=O)O)o1)C(=O)NCc1ccco1`, the pIC50 was 6.49. As for `NC(=O)c1ccc(N=Cc2cc3c(cc2[N+](=O)[O-])OCO3)cc1`, the IC50 result is “inactive”. For the molecule `O=C1N[C@@H](Cc2ccc(O)cc2)C(=O)N2CCN(C(=O)NC3CCCCC3)C[C@H]12`, the IC50 is > 2160 nM (inactive). The same measure, in the same setting: the figure for `Cc1cc(OCCOCCN2CCNCC2)ccc1Cl` is > 6480 nM (inactive); for `O=Cc1cccn1-c1ccc(C(=O)O)cc1` it is “inactive”. Take `O=C1c2c(O)cccc2Cc2cccc(O)c21`: the pIC50 is 6.64.

Take `CCc1ccc(NC(=O)CCc2nc(C3=CCN(C)CC3)no2)cc1`: the IC50 result is “inactive”. For the molecule `COC(=O)CSc1nnc(-c2cnccn2)n1C`, the IC50 was > 6480 nM (inactive). Take `O=C(/C=C/c1ccco1)NCCCCNC(=O)/C=C/c1ccco1`: the pIC50 is 6.74. As to `Cc1cc2c(c(=O)[nH]1)C(=O)O/C2=C\c1ccc(C)o1`, the pIC50 is 6.48.
